# Experimental data published in US20110053916A1 (Vertex Pharmaceuticals Incorporated, priority 2009, published 2011).
# Where a name gives a salt, the structure may show the parent alone. Read-outs that look alike come from different tables or passages of the source.
# Key:
# [1] = tested on: Mycobacterium tuberculosis H37Ra; assay: Mycobacterium tuberculosis growth inhibition assay (microtiter dilution, resazurin reduction); type: cell-based; details: 7H9 broth, 9 days + 24 h resazurin, lowest concentration inhibiting resazurin reduction by >70%, several symbols in a cell = repeat determinations
# How it was run: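 M. tuberculosis H37Ra at ~1×10^6 cells/mL in 7H9 broth plus 10% ADC, exposed to 2-fold serial dilutions (7 or 11 steps) at 37 °C for 9 days. Resazurin then added, fluorescence (492/595 nm) read at baseline and after 24 h; MIC = lowest concentration inhibiting resazurin reduction >70% versus DMSO.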
# [2] = target: T1, PknB (Mycobacterium tuberculosis, UniProt P9WI81); assay: biochemical; set-up: species or system M. tuberculosis; details: for Ki: read-out: Ki Values
# T1 construct: made in house
# T1 sequence (P9WI81 whole entry): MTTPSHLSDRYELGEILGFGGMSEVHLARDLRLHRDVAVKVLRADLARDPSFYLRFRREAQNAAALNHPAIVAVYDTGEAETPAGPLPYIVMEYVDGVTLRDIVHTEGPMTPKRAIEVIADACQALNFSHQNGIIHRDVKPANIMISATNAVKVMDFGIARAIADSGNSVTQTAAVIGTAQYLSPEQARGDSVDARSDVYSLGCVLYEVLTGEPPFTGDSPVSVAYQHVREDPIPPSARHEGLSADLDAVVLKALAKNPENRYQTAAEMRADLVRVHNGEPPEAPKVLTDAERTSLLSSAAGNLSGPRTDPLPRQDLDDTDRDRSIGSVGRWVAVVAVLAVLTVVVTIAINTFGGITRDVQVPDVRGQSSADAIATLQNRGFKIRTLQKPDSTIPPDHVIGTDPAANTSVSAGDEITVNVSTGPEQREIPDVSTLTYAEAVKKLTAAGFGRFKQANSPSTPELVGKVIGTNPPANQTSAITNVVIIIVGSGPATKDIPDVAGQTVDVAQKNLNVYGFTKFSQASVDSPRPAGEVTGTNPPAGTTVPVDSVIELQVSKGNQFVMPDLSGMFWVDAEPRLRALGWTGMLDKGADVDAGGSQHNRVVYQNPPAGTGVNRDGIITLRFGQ
# [3] = 3 nM PknB, 6 uM GarA, 3 μM ATP, 30 min, competitive tight-binding fit, several symbols in a cell = repeat determinations
Compound,MIC values [1],"Ki Values [2, 3]","Ki [2, 3]",Ki Values [2]
"Cc1cnc(-c2ccc([C@H](C)O)s2)nc1Nc1cc(C2CC2)[nH]n1 [Compound 146, (S)-1-(5-(4-(5-cyclopropyl-1H-pyrazol-3-ylamino)-5-methylpyrimidin-2-yl)thiophen-2-yl)ethanol]",B++,"A*, A**",,
"O=S(=O)(NC1CCOCC1)c1ccc(-c2ncc(Cl)c(Nc3cc(C4CC4)[nH]n3)n2)s1 [Compound 148, 5-[5-chloro-4-[(5-cyclopropyl-1H-pyrazol-3-yl)amino]-pyrimidin-2-yl]-N-tetrahydropyran-4-yl-thiophene-2-sulfonamide]","B, C","A, B**",,
"Cc1cnc(-c2ccc(S(=O)(=O)NC(C)(C)C)s2)nc1Nc1cc(C2CC2)n(C)n1 [Compound 149, 5-[4-[(5-cyclopropyl-1-methyl-pyrazol-3-yl)amino]-5-methyl-pyrimidin-2-yl]-N-tert-butyl-thiophene-2-sulfonamide]",B+,,> 4000 nM,
"NS(=O)(=O)c1ccc(-c2ncc(C(F)(F)F)c(Nc3cc(C4CC4)[nH]n3)n2)s1 [Compound 159, 5-(4-(5-cyclopropyl-1H-pyrazol-3-ylamino)-5-(trifluoromethyl)pyrimidin-2-yl)thiophene-2-sulfonamide]",B+,,100 to 500 nM,
"C#Cc1cnc(-c2ccc(CN)s2)nc1Nc1cc(C2CC2)[nH]n1 [Compound 167, 2-(5-(aminomethyl)thiophen-2-yl)-N-(5-cyclopropyl-1H-pyrazol-3-yl)-5-ethynylpyrimidin-4-amine hydrochloride]",B++,,,"A, A, A, B**"
"CC(C)(C)NS(=O)(=O)c1ccc(-c2ncc(Br)c(Nc3cc(C4CC4)[nH]n3)n2)s1 [Compound 170, 5-[5-bromo-4-[(5-cyclopropyl-1H-pyrazol-3-yl)amino]-pyrimidin-2-yl]-N-tert-butyl-thiophene-2-sulfonamide]",B+,"A*, A",,
"NS(=O)(=O)c1ccc(-c2ncc(CO)c(Nc3cc(C4CC4)n[nH]3)n2)s1 [Compound 171, 5-(4-(5-cyclopropyl-1H-pyrazol-3-ylamino)-5-(hydroxymethyl)pyrimidin-2-yl)thiophene-2-sulfonamide]",B++,"A, B**, B**",,
"C#Cc1cnc(N2CC[C@@H](NC(=O)OC(C)(C)C)C2)nc1Nc1cc(C2CC2)n[nH]1 [Compound 173, tert-butyl [[1-[4-[(5-cyclopropyl-2H-pyrazol-3-yl)amino]-5-ethynyl-pyrimidin-2-yl]pyrrolidin-3-yl]amino]formate]",B+,"B, C",,
"C#Cc1cnc(-c2ccc(C(C)(C)O)s2)nc1Nc1cc(C2CC2)[nH]n1 [Compound 180, 2-(5-(4-(5-Cyclopropyl-1H-pyrazol-3-ylamino)-5-ethynylpyrimidin-2-yl)thiophen-2-yl)propan-2-ol]",B++,,10 to 50 nM,
"CCOC(=O)C(O)c1ccc(-c2ncc(Cl)c(Nc3cc(C4CC4)[nH]n3)n2)s1 (centres unmarked) [Compound 191, Ethyl 2-(5-(5-chloro-4-(5-cyclopropyl-1H-pyrazol-3-ylamino)pyrimidin-2-yl)thiophen-2-yl)-2-hydroxyacetate]","B, C","A*, B**",,
"C#Cc1cnc(-c2ccc(S(=O)(=O)NC(C)=O)s2)nc1Nc1cc(C2CC2)[nH]n1 [Compound 192, N-(5-(4-(5-cyclopropyl-1H-pyrazol-3-ylamino)-5-ethynylpyrimidin-2-yl)thiophen-2-ylsulfonyl)acetamide]","B, C",,100 to 500 nM,
"CC(C)(C)OC(=O)/N=C(\N)c1ccc(-c2ncc(Cl)c(Nc3cc(C4CC4)[nH]n3)n2)s1 [Compound 197, tert-butyl [[amino-[5-[5-chloro-4-[(5-cyclopropyl-1H-pyrazol-3-yl)amino]-pyrimidin-2-yl]-2-thienyl]-methylene]amino]formate]",B+,,500 to 1000 nM,
"C#Cc1cnc(-c2ccc([C@H](C)O)s2)nc1Nc1cc(C2CC2)n[nH]1 [Compound 198, (S)-1-(5-(4-(3-cyclopropyl-1H-pyrazol-5-ylamino)-5-ethynylpyrimidin-2-yl)thiophen-2-yl)ethanol]","A, A, A, B++",,1 to 10 nM,
"C#Cc1cnc(N2CCCC2C(=O)OC)nc1Nc1cc(C2CC2)n[nH]1 (centres unmarked) [Compound 200, methyl 1-[4-[(5-cyclopropyl-2H-pyrazol-3-yl)amino]-5-ethynyl-pyrimidin-2-yl]pyrrolidine-2-carboxylate]","B, C","B, D, D",,
"O=[N+]([O-])c1ccc(-c2ncc(Cl)c(Nc3cc(C4CC4)[nH]n3)n2)s1 [Compound 203, 5-Chloro-N-(5-cyclopropyl-1H-pyrazol-3-yl)-2-(5-nitrothiophen-2-yl)pyrimidin-4-amine]","A+, A",,1 to 10 nM,
"O=[N+]([O-])c1csc(-c2ncc(Cl)c(Nc3cc(C4CC4)[nH]n3)n2)c1 [Compound 204, 5-chloro-N-(5-cyclopropyl-1H-pyrazol-3-yl)-2-(4-nitrothiophen-2-yl)pyrimidin-4-amine]",B+,,10 to 50 nM,

Compound,MIC values [1],"Ki Values [2, 3]","Ki [2, 3]",Ki Values [2]
"[H]/N=C(\N)c1ccc(-c2ncc(Cl)c(Nc3cc(C4CC4)[nH]n3)n2)s1 [Compound 205, 5-(5-chloro-4-(5-cyclopropyl-1H-pyrazol-3-ylamino)pyrimidin-2-yl)thiophene-2-carboximidamide]","B, C","A, B**",,
"C#Cc1cnc(-c2ccc([C@@H](C)O)s2)nc1Nc1cc(C2CC2)n[nH]1 [Compound 212, (R)-1-(5-(4-(3-cyclopropyl-1H-pyrazol-5-ylamino)-5-ethynylpyrimidin-2-yl)thiophen-2-yl)ethanol]","A, B++","A**, A**, A*",,
"C#Cc1cnc(-c2ccc([C@H](O)C(C)C)s2)nc1Nc1cc(C2CC2)n[nH]1 [Compound 214, 1-[5-[4-[(5-cyclopropyl-2H-pyrazol-3-yl)amino]-5-ethynyl-pyrimidin-2-yl]-2-thienyl]-2-methyl-propan-1-ol]",B++,"A**, A**, A*",,
"C#Cc1cnc(-c2ccc([C@H](O)CCC)s2)nc1Nc1cc(C2CC2)n[nH]1 [Compound 215, 1-[5-[4-[(5-cyclopropyl-2H-pyrazol-3-yl)amino]-5-ethynyl-pyrimidin-2-yl]-2-thienyl]butan-1-ol]",B++,"A**, A**, A*",,
"CC(C)(C)NS(=O)(=O)c1ccc(-c2ncc(C#CCO)c(Nc3cc(C4CC4)[nH]n3)n2)s1 [Compound 216, N-tert-butyl-5-(4-(5-cyclopropyl-1H-pyrazol-3-ylamino)-5-(3-hydroxyprop-1-ynyl)pyrimidin-2-yl)thiophene-2-sulfonamide]",B+,,1000 to 2000 nM,
"O=[N+]([O-])c1ccc(-c2ncc(Cl)c(Nc3cc(C4CC4)[nH]n3)n2)o1 [Compound 222, 5-chloro-N-(5-cyclopropyl-1H-pyrazol-3-yl)-2-(5-nitrofuran-2-yl)pyrimidin-4-amine]","A+, A",,1 to 10 nM,
"C#Cc1cnc(-c2ccc(C(O)CCCO)s2)nc1Nc1cc(C2CC2)[nH]n1 (centres unmarked) [Compound 223, 1-[5-[4-[(5-cyclopropyl-1H-pyrazol-3-yl)amino]-5-ethynyl-pyrimidin-2-yl]-2-thienyl]butane-1,4-diol]",B++,,1 to 10 nM,
"Cc1cc(Nc2nc(-c3ccc(S(N)(=O)=O)s3)ncc2Cl)n[nH]1 [Compound 224, 5-[5-chloro-4-[(5-methyl-1H-pyrazol-3-yl)amino]-pyrimidin-2-yl]thiophene-2-sulfonamide]",B++,,1 to 10 nM,
"CC(C)c1cc(Nc2nc(-c3ccc(S(N)(=O)=O)s3)ncc2Cl)n[nH]1 [Compound 225, 5-[5-chloro-4-[(5-isopropyl-1H-pyrazol-3-yl)amino]-pyrimidin-2-yl]thiophene-2-sulfonamide]",B++,,1 to 10 nM,
"CC(C#N)c1ccc(-c2ncc(Cl)c(Nc3cc(C4CC4)[nH]n3)n2)s1 (centres unmarked) [Compound 226, 2-[5-[5-chloro-4-[(5-cyclopropyl-1H-pyrazol-3-yl)amino]-pyrimidin-2-yl]-2-thienyl]propanenitrile]",B++,,10 to 50 nM,
"C#Cc1cnc(-c2ccc(C(C)C#N)s2)nc1Nc1cc(C2CC2)[nH]n1 (centres unmarked) [Compound 227, 2-[5-[4-[(5-cyclopropyl-1H-pyrazol-3-yl)amino]-5-ethynyl-pyrimidin-2-yl]-2-thienyl]propanenitrile]",B++,,1 to 10 nM,
"OC1/C=C\c2c(n[nH]c2C2CC2)Nc2nc(ncc2Cl)-c2ccccc21 (centres unmarked) [Compound 232, chloro-cyclopropyl-BLAHol]","B, C",,> 4000 nM,
"CC(C)(C)c1cc(Nc2nc(-c3ccc(S(N)(=O)=O)s3)ncc2Cl)n[nH]1 [Compound 236, 5-(4-(5-tert-butyl-1H-pyrazol-3-ylamino)-5-chloropyrimidin-2-yl)thiophene-2-sulfonamide]","A+, A, A, A, A",,100 to 500 nM,
"C#Cc1cnc(-c2ccc(C(C)(C)C#N)s2)nc1Nc1cc(C2CC2)[nH]n1 [Compound 237, 2-[5-[4-[(5-cyclopropyl-1H-pyrazol-3-yl)amino]-5-ethynyl-pyrimidin-2-yl]-2-thienyl]-2-methyl-propanenitrile]",B++,,1 to 10 nM,
"CC(C)(C#N)c1ccc(-c2ncc(Cl)c(Nc3cc(C4CC4)[nH]n3)n2)s1 [Compound 238, 2-[5-[5-chloro-4-[(5-cyclopropyl-1H-pyrazol-3-yl)amino]-pyrimidin-2-yl]-2-thienyl]-2-methyl-propanenitrile]",B++,,1 to 10 nM,
